Source: publication PMC8497620, “Structure and inhibition of Cryptococcus neoformans sterylglucosidase to develop antifungal agents” (Nature Communications, 2021)
Where “and” joins values, the source holds several entries; their conditions need not be identical. Equal entries are not always repeated. Entries after “also recorded” stand apart in the source; their conditions may differ. Where two headings read alike, the source gives them in different places.

Key:
C. neoformans H99 [1] = assay: Growth inhibition assay (YNB, 1% glucose, sealed plates, limited oxygen); type: cell-based, Cryptococcus neoformans; conditions: 37 °C, 72 h
Experimental: Five microliters containing 100 cells of C. neoformans H99 were inoculated in solid YNB media without amino acids plus 1% w/v glucose. Plates were then sealed with clear polyolefin sealing tape (ThermoFisher) and incubated at 37 °C for 72 h. Hits 1, 9, and 15 were added to the media at concentrations of 10 and 50 µM. H99, Δsgl1, and Δsgl1 + SGL1 strains were used as controls without compounds.

C. neoformans Sgl1 [2] = target: T1, C. neoformans Sgl1 (Cryptococcus neoformans var. grubii, UniProt J9W473); assay: Sgl1 inhibition with native substrate erg-glc; type: biochemical; conditions: substrate ergosterol 3β-D-glucoside (1 mol%); for inhibition at 10 µM: read-out: % Sgl1 Inhibition, 10 µM compound; for inhibition at 100 µM: read-out: % Sgl1 Inhibition, 100 µM compound; for inhibition at 0.1 µM: read-out: % Sgl1 Inhibition, 0.1 µM compound; for inhibition at 1 µM: read-out: % Sgl1 Inhibition, 1 µM compound
Experimental: To validate the selective inhibition of Sgl1 by these compounds, we first tested their ability to inhibit hydrolysis of erg-glc in vitro.
A 50 μL volume of Cn Sgl1 wild type and 50 μL of mixed micelles of lipid and Triton X-100 in 50 mM Bis-Tris buffer with 150 mM NaCl, 5 mM βME, and 5 mM DTT were mixed and incubated at 37 °C for 10 min (erg-glc, Avanti Polar Lipids) and 1 h (C6-NBD-glcCer, Matreya). For the substrate erg-glc the amount of protein was 5 ng. 150 ng protein was used for reactions with C6-NBD-GlcCer. After the incubation period, each reaction was quenched with a 2:1 chloroform:methanol solution and the organic phase was collected and dried. Then, the lipid content was resuspended in 50 μL methanol and applied to HPLC (Agilent Technologies). Total erg-glc and ergosterol was detected using absorbance at 282 nm on a C-8 column with a flow rate of 0.5 ml/min in methanol/water 90:10 ratio buffered with 1 mM ammonium formate and 0.2% formic acid. A 85:15 ratio of the same eluent was used for C6-NBD-GlcCer and C6-NBD-ceramide monitoring the fluorescence at 470/530 nm excitation/emission. The total area of product was normalized by the total area of its respective substrate.

C. neoformans H99 [3] = assay: Mouse model of cryptococcosis, intraperitoneal treatment (CBA/J mice); type: in vivo, Cryptococcus neoformans; conditions: 10 mg/kg/day intraperitoneally; for CFU recovered from the brain: 14 days after infection; for lung CFU compared to vehicle-treated mice: days 3, 6, 9, 14; for Lung (CFU/mL): 10 mg/kg/day
Experimental: (§1) For animal studies, 4-week-old CBA/J (Envigo) female mice were used. Mouse experiments were performed in full compliance with a protocol approved by Stony Brook University (IACUC number 341588) and in compliance with the United States Animal Welfare Act (Public Law 98–198). The experiments were carried out in facilities accredited by the Association for Assessment and Accreditation of Laboratory Animal Care. Mice were divided into sets of 12 mice for each treatment or control group (4 animals per cage) kept in an animal room (temperature, 22–24 °C; relative humidity, 35–45%) with artificial 12–12 h dark/light cycle. For the experiment with intraperitoneal (i.p.) treatment, mice were infected intranasally with 10 µL of a suspension containing 1 × 10^6 C. neoformans H99 cells and subsequently treated through i.p. injection with 10 mg/kg/day of hit 1 in a final volume of 100 µL of vehicle containing 10% PEG 200 in PBS. The untreated animals received 100 µL of vehicle. For the experiment with intranasal (i.n.) treatment, mice were infected with 1 × 10^5 C. neoformans H99 cells and received i.n. treatment with hit 1 in a final volume of 10 µL. Another group received treatment with 10 mg/kg/day of fluconazole i.p. and a third group received the combined treatment of hit1 by i.n. and fluconazole by i.p. Animals receiving only vehicle i.n. were used as a control group. In both experiments, three mice of each group were euthanized at day 3, 6, 9, and 14 post infection for CFU recovery from lungs and CFU recovery from brain on day 14.

C. neoformans Sgl1 [4] = target: T1, C. neoformans Sgl1; assay: Sgl1 inhibition with res-glp substrate (HTS, single-compound dose-response); type: biochemical; conditions: for inhibition at 0.125 µM: read-out: % Sgl1 Inhibition, 0.125 µM compound; for inhibition at 0.125 µM / inhibition at 0.5 µM / inhibition at 1 µM / inhibition at 2 µM / inhibition at 4 µM / inhibition at 8 µM / inhibition at […] / % Sgl1 Inhibition: substrate resorufin 3β-D-glucopyranoside (100 µM); for inhibition at 0.5 µM: read-out: % Sgl1 Inhibition, 0.5 µM compound; for inhibition at 1 µM: read-out: % Sgl1 Inhibition, 1 µM compound; for inhibition at 2 µM: read-out: % Sgl1 Inhibition, 2 µM compound; for inhibition at 4 µM: read-out: % Sgl1 Inhibition, 4 µM compound; for inhibition at 8 µM: read-out: % Sgl1 Inhibition, 8 µM compound; for inhibition at […]: read-out: % Sgl1 Inhibition, […] compound; for IC50: res-glp as substrate (100 µM), primary screen, read-out: IC50 against Sgl1
C. neoformans H99 [5] = type: in vivo, Cryptococcus neoformans; conditions: Hit 1 intranasally, fluconazole intraperitoneally; for brain dissemination / CFU recovered from the brain: 14 days; for Lung (CFU/mL): 10 mg/kg/day
Experimental: as §1

[6] = day 14 post infection, 10 mg/kg/day each

T1 sequence (J9W473 entry or part of it): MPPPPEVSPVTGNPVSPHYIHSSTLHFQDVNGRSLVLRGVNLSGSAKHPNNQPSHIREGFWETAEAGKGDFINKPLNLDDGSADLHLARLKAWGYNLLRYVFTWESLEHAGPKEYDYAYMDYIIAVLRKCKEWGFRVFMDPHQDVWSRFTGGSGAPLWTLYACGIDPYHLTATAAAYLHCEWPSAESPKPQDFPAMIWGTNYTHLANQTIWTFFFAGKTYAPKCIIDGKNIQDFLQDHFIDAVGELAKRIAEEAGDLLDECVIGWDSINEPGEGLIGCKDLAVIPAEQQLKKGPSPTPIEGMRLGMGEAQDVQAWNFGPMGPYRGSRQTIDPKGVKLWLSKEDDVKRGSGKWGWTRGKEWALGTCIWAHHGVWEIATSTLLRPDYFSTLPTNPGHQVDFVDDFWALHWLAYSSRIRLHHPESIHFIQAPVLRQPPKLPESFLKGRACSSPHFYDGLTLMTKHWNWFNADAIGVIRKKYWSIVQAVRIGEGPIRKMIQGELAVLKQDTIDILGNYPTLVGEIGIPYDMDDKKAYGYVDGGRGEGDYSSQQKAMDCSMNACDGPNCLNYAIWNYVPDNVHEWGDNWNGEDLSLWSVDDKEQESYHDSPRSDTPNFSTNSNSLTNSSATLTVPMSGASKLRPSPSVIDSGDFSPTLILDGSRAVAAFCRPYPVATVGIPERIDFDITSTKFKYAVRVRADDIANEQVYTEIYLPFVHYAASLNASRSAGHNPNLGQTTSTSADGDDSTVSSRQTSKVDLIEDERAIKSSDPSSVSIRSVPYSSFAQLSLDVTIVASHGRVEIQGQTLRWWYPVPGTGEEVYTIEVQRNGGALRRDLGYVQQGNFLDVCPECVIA

COc1cccc(-c2ncc(CN3CCC(O)(CO)CC3)s2)c1 [Hit 1]
growth of wild-type C. neoformans (C. neoformans H99 [1]; 50 µM): inhibit growth similarly to C. neoformans Δsgl1; also recorded: lack of growth | % Sgl1 Inhibition (C. neoformans Sgl1 [2]; 0.1 µM compound, 0.1 µM): 11.4412% and 5.382% | % Sgl1 Inhibition (C. neoformans Sgl1 [2]; 10 µM compound, 10 µM): 46.34% | % Sgl1 Inhibition (C. neoformans Sgl1 [2]; 100 µM compound, 100 µM): 79.9522% | inhibition at 10 µM (C. neoformans Sgl1 [2]): 40.5% | inhibition at 100 µM (C. neoformans Sgl1 [2]): 84.8% | CFU recovered from the brain (C. neoformans H99 [3]): no CFU were recovered from the brain | CFU recovered from the brain (C. neoformans H99 [3]; listed as hit 1): No yeast cells were recovered from the brain | lung CFU compared to vehicle-treated mice (C. neoformans H99 [3]): did not reduce lung colony-forming units | lung CFU compared to vehicle-treated mice (C. neoformans H99 [3]; listed as hit 1): no significant difference among untreated and treated mice | Lung (CFU/mL) (C. neoformans H99 [3]; day 3 post infection): 1200000 CFU/mL and 1520000 CFU/mL and 1480000 CFU/mL | Lung (CFU/mL) (C. neoformans H99 [3]; day 9 post infection): 25000000 CFU/mL and 14200000 CFU/mL and 19700000 CFU/mL | Brain (CFU/mL) (C. neoformans H99 [3]; day 14 post infection): 0 CFU/mL | Lung (CFU/mL) (C. neoformans H99 [3]; day 14 post infection): 28600000 CFU/mL and 29600000 CFU/mL and 22000000 CFU/mL | inhibition at 0.125 µM (C. neoformans Sgl1 [4]): 0% | inhibition at 0.5 µM (C. neoformans Sgl1 [4]): 14% | inhibition at 1 µM (C. neoformans Sgl1 [4]): 45.8% | inhibition at 2 µM (C. neoformans Sgl1 [4]): 56.1% | inhibition at 4 µM (C. neoformans Sgl1 [4]): 74% | inhibition at 8 µM (C. neoformans Sgl1 [4]): 90.2% | inhibition at […] (C. neoformans Sgl1 [4]): 0% | IC50 (C. neoformans Sgl1 [4]): ~1000 nM and 1000 nM | brain dissemination / CFU recovered from the brain (C. neoformans H99 [5]): no CFU recovered from the brain | brain dissemination / CFU recovered from the brain (C. neoformans H99 [5]; listed as hit 1): no brain dissemination of yeast cells | Lung (CFU/mL) (C. neoformans H99 [5]; day 9 post infection, 10 mg/kg/day each): 950000 CFU/mL and 1400000 CFU/mL and 780000 CFU/mL | Brain (CFU/mL) (C. neoformans H99 [5]; [6]): 0 CFU/mL | Lung (CFU/mL) (C. neoformans H99 [5]; [6]): 3880000 CFU/mL and 3700000 CFU/mL and 3100000 CFU/mL

CN1C[C@@H](NC(=O)Cc2ccc3c(c2)NC(=O)CO3)C[C@@H]1CO [Hit 9]
growth of wild-type C. neoformans (C. neoformans H99 [1]; 10 µM): abrogated C. neoformans growth | growth of wild-type C. neoformans (C. neoformans H99 [1]; 50 µM): inhibit growth similarly to C. neoformans Δsgl1; also recorded: lack of growth | % Sgl1 Inhibition (C. neoformans Sgl1 [2]; 0.1 µM compound, 0.1 µM): 58.2711% | % Sgl1 Inhibition (C. neoformans Sgl1 [2]; 1 µM compound, 1 µM): 93.4351% | % Sgl1 Inhibition (C. neoformans Sgl1 [2]; 10 µM compound, 10 µM): 98.2082% | % Sgl1 Inhibition (C. neoformans Sgl1 [2]; 100 µM compound, 100 µM): 100% | inhibition at 0.1 µM (C. neoformans Sgl1 [2]): 52.2% | inhibition at 1 µM (C. neoformans Sgl1 [2]): 92.9% | inhibition at 10 µM (C. neoformans Sgl1 [2]): 97.6% | inhibition at 100 µM (C. neoformans Sgl1 [2]): 98.1% | % Sgl1 Inhibition (C. neoformans Sgl1 [4]; 0.125 µM compound): 56.0175% and 54.9266% and 54.4568% | % Sgl1 Inhibition (C. neoformans Sgl1 [4]; 0.5 µM compound): 83.3956% and 82.99% and 82.7099% | % Sgl1 Inhibition (C. neoformans Sgl1 [4]; 1 µM compound): 91.001% and 90.7947% and 90.4821% | % Sgl1 Inhibition (C. neoformans Sgl1 [4]; 2 µM compound): 95.2753% and 95.0933% and 95.0009% | % Sgl1 Inhibition (C. neoformans Sgl1 [4]; 4 µM compound): 97.4258% and 97.3045% and 97.2378% | % Sgl1 Inhibition (C. neoformans Sgl1 [4]; 8 µM compound): 98.6119% and 98.5721% and 98.4808% | inhibition at 0.125 µM (C. neoformans Sgl1 [4]): 57.2% | inhibition at 0.5 µM (C. neoformans Sgl1 [4]): 84% | inhibition at 1 µM (C. neoformans Sgl1 [4]): 91.3% | inhibition at 2 µM (C. neoformans Sgl1 [4]): 95.5% | inhibition at 4 µM (C. neoformans Sgl1 [4]): 97.5% | inhibition at 8 µM (C. neoformans Sgl1 [4]): 98.6% | inhibition at […] (C. neoformans Sgl1 [4]): 73.1% | IC50 (C. neoformans Sgl1 [4]): ~1000 nM

CC(C)c1nc(N[C@@H]2C[C@@H](CO)N(C)C2)c2cnn(C)c2n1 [Hit 15]
growth of wild-type C. neoformans (C. neoformans H99 [1]; 10 µM): abrogated C. neoformans growth | growth of wild-type C. neoformans (C. neoformans H99 [1]; 50 µM): inhibit growth similarly to C. neoformans Δsgl1; also recorded: lack of growth | % Sgl1 Inhibition (C. neoformans Sgl1 [2]; 0.1 µM compound, 0.1 µM): 19.6403% | % Sgl1 Inhibition (C. neoformans Sgl1 [2]; 1 µM compound, 1 µM): 70.0789% | % Sgl1 Inhibition (C. neoformans Sgl1 [2]; 10 µM compound, 10 µM): 95.289% | inhibition at 0.1 µM (C. neoformans Sgl1 [2]): 26.7% | inhibition at 1 µM (C. neoformans Sgl1 [2]): 73.4% | inhibition at 10 µM (C. neoformans Sgl1 [2]): 95.2% | inhibition at 100 µM (C. neoformans Sgl1 [2]): 100% | % Sgl1 Inhibition (C. neoformans Sgl1 [4]; 0.125 µM compound): 9.082% and 9.377% and 8.377% | % Sgl1 Inhibition (C. neoformans Sgl1 [4]; 0.5 µM compound): 26.2814% and 26.2434% and 24.9511% | % Sgl1 Inhibition (C. neoformans Sgl1 [4]; 1 µM compound): 39.5402% and 38.9055% and 37.6785% | % Sgl1 Inhibition (C. neoformans Sgl1 [4]; 2 µM compound): 58.3844% and 57.9199% and 56.5095% | % Sgl1 Inhibition (C. neoformans Sgl1 [4]; 4 µM compound): 75.564% and 74.8313% and 74.139% | % Sgl1 Inhibition (C. neoformans Sgl1 [4]; 8 µM compound): 85.0771% and 84.7714% and 84.105% | inhibition at 0.125 µM (C. neoformans Sgl1 [4]): 10.2% | inhibition at 0.5 µM (C. neoformans Sgl1 [4]): 27.9% | inhibition at 1 µM (C. neoformans Sgl1 [4]): 40.8% | inhibition at 2 µM (C. neoformans Sgl1 [4]): 59.6% | inhibition at 4 µM (C. neoformans Sgl1 [4]): 76.4% | inhibition at 8 µM (C. neoformans Sgl1 [4]): 85.5% | inhibition at […] (C. neoformans Sgl1 [4]): 14.9% | IC50 (C. neoformans Sgl1 [4]): ~1000 nM and 1000 nM
